Test results as given in article PMC9587079, “Bioavailability of inhaled or ingested PFOA adsorbed to house dust” (Environmental Science and Pollution Research International, 2022).
Entries after “also recorded” stand apart in the source; their conditions may differ. Like-named read-outs stand apart in the source and are kept apart here.

Assays:
[1] = PFOA in terminal plasma, lung lavage and tissues 48 h after dust exposure; format: in vivo, rat; conditions: for Kp at 48 h / concentration at 48 h: male, RccHan:WIST, rat
[2] = set-up: method as in Li et al. [2017]; conditions: humans, calculated; ref Li et al. [2017]; cited from earlier work
[3] = Sorption of PFOA on house dust in near saturated vapor; format: physicochemical; conditions: more than 3 weeks
Method: To achieve a sufficient concentration of PFOA on the house dust, a saturated vapor concentration procedure was created to adsorb/absorb PFOA on the house dust. This was done to ensure detectability in the tissue samples. Ten grams of solid pure perfluorooctanoic acid was placed in a glass jar bottle, capped with a lid, shaken and stored at room temperature (25 ± 0.1 °C) to allow vaporization and pre-equilibration of PFOA on the walls of the glass jars. Following equilibration of PFOA in the air and on walls of jars, a portion of 5 ± 0.03 g dust was placed in a polypropylene (PP) round plate inside each of four jars. These were capped and kept under the controlled room temperature and atmospheric pressure over time, mimicking a residential indoor environment, but with a saturated vapor of PFOA. Repeated samples of dust were withdrawn from the jars over time and analyzed for the PFOA content. This procedure was repeated over time for up to 6 weeks until a stable equilibrium concentration of PFOA was attained adsorbed to the dust. […]
During the adsorption process, the concentration of PFOA adsorbed to the dust was periodically measured after a rotatory mixing of dust samples with a tube rotator or 24 h prior to the extraction procedures and instrumental analysis. […]

[4] = set-up: method as in Iwabuchi et al. [2017]; conditions: oral 100 μg/kg bw, male rats, ref Iwabuchi et al. [2017], cited from earlier work
[5] = set-up: method as in Li et al. [2017]; conditions: rats; ref Li et al. [2017]; cited from earlier work
[6] = set-up: method as in Hinderliter et al. [2006]; conditions: ref Hinderliter et al. [2006], cited from earlier work
[7] = cited from earlier work
[8] = Vapor concentration of PFOA at outlet of vapor generation chamber; format: physicochemical; conditions: room temperature, after 24 h
Method: The gas phase of PFOA was collected with OSHA Versatile Sampling (OVS) tubes with XAD-2 resin (SKC). Samples were collected at a flowrate of 0.04 L/min using vacuum sampling pumps. Collection times were set for 5 min typically for a 200 mL air sample. PFOA from the OVS sampler was extracted prior to analysis into two fractions with each fraction placed into individual PP tubes. Fraction A consisted of the glass or quartz fiber filter and first section of XAD resin beads and the first polyurethane foam (PUF) filter. Fraction B consisted of the second section of XAD resin beads and the back PUF filter. All samples were spiked with 50 μL of 1 μg/mL C13 solution, the surrogate standard. Each section was placed in PP tube to which 5 mL of HPLC-grade methanol was added. The tube was shaken for 60 min on a mechanical flatbed shaker set at ∼2 cycles per second. Approximately 4.5 mL of each extract was transferred to a pre-baked amber glass vial by filtering through a Gelman GHP Acrodisc (Pall Gelman Laboratory, Ann Arbor, MI, USA.). Each extract of consisting of 200 μL was transferred to an autosampler vial with PP insert. […]
The vapor concentration of PFOA (Cpfoa) measured at the outlet of the vapor pressure generation chamber is described in detail in Supplementary Information and shown in Fig. S1. […]

[9] = PFOA in plasma over time after inhalation or gavage of PFOA-coated house dust; format: in vivo, rat; conditions: for Cmax: male, RccHan:WIST, rat, plasma

O=C(O)C(F)(F)C(F)(F)C(F)(F)C(F)(F)C(F)(F)C(F)(F)C(F)(F)F [PFOA, Perfluorooctanoic acid]
Liver:plasma ratio of PFOA concentration ([1]; 48 h, inhalation): 5.28 ± 1.3
Kidney:plasma ratio of PFOA concentration ([1]; 48 h, oral gavage): 1.72 ± 0.3
Liver:plasma ratio of PFOA concentration ([1]; 48 h, oral gavage): 4.89 ± 1.0
Levels of PFOA in plasma, liver and kidney, inhalation compared to oral ([1]; 48 h post exposure): twice as high
PFOA concentration ([1]; kidney, 48 h, inhalation): 3.84 ± 0.8 µg/g
PFOA concentration ([1]; kidney, 48 h, oral gavage): 3.15 ± 0.2 µg/g
PFOA concentration ([1]; liver, 48 h, inhalation): 10.1 ± 0.9 µg/g
PFOA concentration ([1]; liver, 48 h, oral gavage): 8.94 ± 0.5 µg/g
PFOA concentration ([1]; lung, 48 h, inhalation): 31.3 ± 4.0 µg/g
PFOA concentration ([1]; lung, 48 h, oral gavage): 1.68 ± 0.3 µg/g
Kp at 48 h ([1]; kidney, 364 μg PFOA/kg BW, 48 h, oral gavage, read-out: Kidney:plasma ratio of PFOA concentration): 1.72
concentration at 48 h ([1]; kidney, inhaled, 164 μg PFOA/kg BW, kidney, 48 h, inhalation): 3840 ± 760 ng/g
Kp at 48 h ([1]; kidney, inhaled, 164 μg PFOA/kg BW, 48 h, inhalation, read-out: Kidney:plasma ratio of PFOA concentration): 2.02 ± 0.7
concentration at 48 h ([1]; kidney, po, 364 μg PFOA/kg BW, kidney, 48 h, oral gavage): 3150 ± 190 ng/g
Kp at 48 h ([1]; liver, 364 μg PFOA/kg BW, 48 h, oral gavage, read-out: Liver:plasma ratio of PFOA concentration): 4.89
concentration at 48 h ([1]; liver, inhaled, 164 μg PFOA/kg BW, liver, 48 h, inhalation): 10100 ± 880 ng/g
Kp at 48 h ([1]; liver, inhaled, 164 μg PFOA/kg BW, 48 h, inhalation, read-out: Liver:plasma ratio of PFOA concentration): 5.28
concentration at 48 h ([1]; liver, po, 364 μg PFOA/kg BW, liver, 48 h, oral gavage): 8940 ± 500 ng/g
concentration at 48 h ([1]; lung lavage (BALF), inhaled, 164 μg PFOA/kg BW, lung lavage, 48 h, inhalation): 9980 ± 630 ng/mL
concentration at 48 h ([1]; lung lavage (BALF), po, 364 μg PFOA/kg BW, lung lavage, 48 h, oral gavage): 310 ± 20 ng/mL
concentration at 48 h ([1]; lung, inhaled, 164 μg PFOA/kg BW, lung, 48 h, inhalation): 31300 ± 4000 ng/g
concentration at 48 h ([1]; lung, po, 364 μg PFOA/kg BW, lung, 48 h, oral gavage): 1680 ± 310 ng/g
concentration at 48 h ([1]; plasma, inhaled, 164 μg PFOA/kg BW, terminal plasma, 48 h, inhalation of PFOA-coated dust (164 μg PFOA/kg BW)): 2030 ± 320 ng/mL
concentration at 48 h ([1]; plasma, po, 364 μg PFOA/kg BW, terminal plasma, 48 h, oral gavage of PFOA-coated dust (364 μg PFOA/kg BW)): 1870 ± 350 ng/mL
Distribution of PFOA to liver and kidney, inhalation compared to oral gavage ([1]; post exposure): ~2.5 times
PFOA concentration ([1]; terminal plasma, 48 h, inhalation of PFOA-coated dust (164 μg PFOA/kg BW)): 1.97 ± 0.32 ng/µL
Half-time [2]: 2.3–8.5 years
Steady state concentration of PFOA on house dust [3]: 0.335 g/g coated dust
Liver to serum ratio ([4]; at Cmax (12 h)): 1.67
Kidney to serum ratio [4]: 0.82
Half-time [5]: a few days
Concentration of PFOA in plasma ([6]; 6-h inhalation exposure, 1–25 mg/m^3 aerosolized solution): 1000 to 25000 ng/mL
Plasma level in male compared to females ([6]; end of the 6-h exposure time): almost twice as high
Absorption over the gastrointestinal tract ([7]; oral exposure in animal studies, ammonium salt: APFO, ref DeWitt. [2015]): virtually all of it was absorbed
Delivered dose absorbed over the gastro intestinal ([7]; oral exposure, ref US EPA [2016], Pizzurro et al. [2019], DeWitt. [2015]): more than 90%
Stable (saturation) vapor concentration of PFOA [8]: 1.37e-05 µg/L
Cmax ([9]; inhaled or intranasal, inhalation group, n = 4, 164 μg PFOA/kg BW): 3100 ± 320 ng/mL
Cmax ([9]; oral gavage group, n = 4, 364 μg PFOA/kg BW): 1730 ± 170 ng/mL
Time of Cmax post exposure ([9]; oral gavage group): 3 h
Plasma PFOA (Cmax, 3 h) following inhalation compared to oral exposure ([9]; same deposition level of exposure): almost four times higher; also recorded: approximately four times higher
